Measurements taken from patent publication US9539245B2, “Combination of immunotherapies with activators of Tie-2” (Aerpio Therapeutics, Inc., priority 2014, dated 2017).
Entries after “also recorded” stand apart in the source; their conditions may differ.

Legend:
[1] = system: stroke after MCAO in mice; assay: Middle cerebral artery occlusion (MCAO) stroke model in mice; format: in vivo, mouse
Description: Mice with endothelial-specific overexpression of hAng-2 (DT mice) underwent a permanent middle cerebral artery occlusion (MCAO). After a permanent MCAO was performed, animals were allowed to survive for 24 hours or 72 hours. Mice were anesthetized intraperitoneally (i.p.) with a combination of midazolam/medetomidine/fentanyl (5/0.5/0.05 mg/kg body mass). Anesthesia was terminated by i.p. injection of atipamezol/naloxone/flumazenil 2.5/1.2/0.5 mg/kg body weight). Brains were isolated and frozen down in Tissue TEK® O.C.T. and stored at −80° C. until use. WT mice also underwent the procedure as controls.
Larger infarcts were detected in DT mice that were subjected to MCAO as compared to WT mice that were subjected to MCAO after 24 hours and 72 hours (FIG. 9). Additionally, the IgG permeability in the stroke area was increased in DT mice (FIG. 10). Mice were treated with a Tie-2 activator shown below: […]

Tie-2 [2] = assay: Western blot analysis of MBMECs pre-treated with hAng-2; format: cell-based, mouse; details: MBMECs pretreated with hAng-2 (16 h, 500 ng/ml), then Tie-2 activator 50 μM, 10 min
Description: (§1) For the Western blot experiments, samples were solubilized in urea/SDS buffer (2.3 M urea, 1.5% SDS, 50 mM Tris, 25 mM TCEP, and 0.01% BPB) for 1.5 h at 30° C. with shaking. Solubilized samples were loaded into Tris-HCl Bis-acrylamide gels (8-15%), electrophoresed, and subsequently transferred to nitrocellulose membranes at 4° C. overnight. Membranes were blocked for 1 hour at room temperature on a 1× Roti®-block (Roth™), incubated with primary antibodies overnight at 4° C., washed with PBS-T (0.5% Tween®-20), incubated with horseradish peroxidase-conjugated or fluorescent secondary antibodies (LI-COR™) for 1 h at room temperature. Membranes were imaged in Odyssey® (LI-COR™) imaging device and quantitation was performed on exported raw tiff files using Image Studio™ 2.1 software (LI-COR™).
Activation of Tie-2/Akt by the Tie-2 activator alone indicates a direct and specific effect of this drug. Phosphorylation of VE-Cadherin responsible for increased junctional permeability was reduced upon treatment with the Tie-2 activator (FIGS. 13 and 14). This observation explains in part the decreased permeability and stroke size in vivo.

Tie-2 [3] = assay: Western blot and staining of the stroke hemisphere of treated mice; parameters: species or system mouse; details: in vivo
Description: as §1
Activation of Tie-2 upon treatment indicated by higher pTie-2 and pAkt levels in stroke hemispheres confirms in vivo activity (FIG. 15). […] FIG. 16 illustrates representative images (n=2 each group) of Tie-2 (red) and pTie-2 (green) staining of the stroke hemisphere.

[4] = system: primary mouse brain endothelial cells (MBMECs); assay: Transendothelial electrical resistance (TEER) measurements of MBMEC monolayers; format: cell-based; details: recombinant human Ang-2 treatment; CD1 mice; FIG. 1 PANEL B
Description: To assess the role of Angiopoietin 1 (Ang-1), Angiopoietin 2 (Ang-2), and a Tie-2 activator in modulating permeability at the blood-brain barrier transendothelial electrical resistance (TEER) measurements were performed to obtain continuous barrier tightness index of primary mouse brain endothelial cells (MBMECs).
TEER measurements were performed as follows: isolated mouse brain microvascular endothelial cells (MBMECs) (100,000 cells/cm^2, 4-6 mice/prep) were seeded onto 1 μm pore 24-well PET transwell inserts (Greiner Bio-One) pre-coated with fibronectin (5 μg/cm^2, Sigma-Aldrich™). The inserts were transferred to a cellZscope® device placed in a humidified incubator (37° C., 5% CO2) and impedance measurements obtained continuously. Treatment was started upon reaching a plateau in TEER levels.
Isolation of mouse brain microvascular endothelial cells (MBMECs) was conducted as follows: Meninges-free brains were pooled and homogenized followed by digesting the pellet with 0.75% Collagenase II (Worthington™) in buffer A (1:1:1 volume ratio) for 1 hour with shaking at 37° C. For removing myelin, samples were resuspended in 25% BSA and centrifuged at 1500×g for 30 min at 4° C., followed by digesting the pellet with Collagenase/Dispase® (Roche™) and DNase I (Worthington™) in buffer A for 12 min at 37° C. […]

MBMEC monolayers = assay: Transwell permeability assay of MBMEC monolayers with fluorescent tracers; format: cell-based, mouse (C57BL/6J); details: MBMECs from C57BL/6J mice, FIG. 2
Description: MBMECs were isolated from CD1 and C57BL/6J mice pooling 4-6 animals in each preparation and cultured on transwell inserts. Permeability of the MBMEC monolayers to 0.45 kD Lucifer-Yellow (LY; Sigma™), Texas Red® 3 kD dextran (Invitrogen™), TMR 20 kD dextran (Sigma™) and 70 kD FITC dextran (Sigma™) was determined as follows. Medium from the bottom chamber at each time point was read in a fluorescence plate reader (Tecan™) at the corresponding tracer excitation/emission and normalized to the apical chamber fluorescence with the ratio for the control condition set to 100%.
To rule out the possibility that Ang-2-mediated permeability was specific to the CD1 strain of mice used in the experiment, transwell assays applying fluorescent dextrans (3 kD, 20 kD, and 70 kD) and Lucifer-Yellow (LY 0.45 kD), using C57BL/6J mice were conducted.

Compound	stroke size (TTC staining) ([1]; WT mice after MCAO, compared to vehicle dH2O control, FIG. 11)	permeability to IgG in the stroke area ([1]; mice after MCAO, compared to control)	neurological behavior after stroke (behavior scoring test) ([1]; mice after stroke, FIG. 19)	Akt activation (pAkt levels) (Tie-2 [2]; FIGS. 13 and 14)	Tie-2 activation (pTie-2 levels) (Tie-2 [2]; FIGS. 13 and 14)	phosphorylation of VE-Cadherin (pVE-Cadherin) (Tie-2 [2]; n=3)	Akt activation (pAkt) in the stroke hemisphere (Tie-2 [3]; Western blot, n=7, FIG. 15)	pTie-2 in the stroke hemisphere (Tie-2 [3]; treated mice compared to controls, FIGS. 15 and 16)	transendothelial electrical resistance (TEER) of MBMECs [4]	permeability to tracers (fluorescent dextrans 3 kD, 20 kD, 70 kD and Lucifer-Yellow 0.45 kD) (MBMEC monolayers)
CCc1nc([C@H](Cc2ccc(NS(=O)(=O)O)cc2)NC(=O)[C@H](Cc2ccccc2)NC(=O)OC)cs1 [Tie-2 activator]	significantly decreased stroke sizes	Decreased permeability to IgG	improvement in neurological behavior	increased Tie-2 and Akt activation	increased levels of pTie-2	decreased in tendency, but not significant	increased Akt activation	increased pTie-2 staining		
rhAng-2: recombinant human angiopoietin 2, a Tie-2 ligand									decrease in TEER; also recorded: decrease in transendothelial electrical resistance	increased permeability to tracers of all sizes
